The record followed here is ChEMBL document CHEMBL1137184, “Anti-HIV activity of some synthetic lignanolides and intermediates” (Bioorg Med Chem Lett, 2004).

The structures appear in SMILES notation.

For data set [1], the system named is Human immunodeficiency virus 1. The data set is described as follows: Compound was evaluated for the inhibition of HIV-1 LTR by HeLa-Tet-ON assay at 25 uM concentration. In kind it is functional.
Data set [2] relates to Human immunodeficiency virus 1. The data set is described as follows: Compound was evaluated for the inhibition of HIV-1 LTR by HeLa-Tet-ON assay at 50 uM concentration. In kind it is functional.
Data set [3] relates to Human immunodeficiency virus 1. The data set is described as follows: Compound was evaluated for anti-Tat activity in the HeLa-TAT-Luc cell assay against human immunodeficiency virus at 50 uM concentration (Untreated cells). The format is functional.
Data set [4] can be described thus: Compound was evaluated for toxicity in necrosis using MT2 assay at 50 uM concentration at 24 hr. The conditions noted are these: human.
Data set [5] is described as follows: Compound was evaluated for toxicity in necrosis using MT2 assay at 25 uM concentration at 24 hr. To be noted: human.
In data set [6] the test system is Human immunodeficiency virus 1. The data set is described as follows: Compound was evaluated for the inhibition of HIV-1 LTR by TNF-alpha-induced NF-kB assay at 25 uM concentration (TNF-alpha-treated cells). The format is functional.
For data set [7], the system named is Human immunodeficiency virus 1. Nature of the data set: Compound was evaluated for anti-Tat activity in the HeLa-TAT-Luc cell assay against human immunodeficiency virus at 25 uM concentration (Untreated cells). In kind it is functional.
Data set [8] relates to Human immunodeficiency virus 1. Nature of the data set: Compound was evaluated for the inhibition of HIV-1 LTR by TNF-alpha-induced NF-kB assay at 100 uM concentration (TNF-alpha-treated cells). In kind it is functional.
Data set [9] concerns Human immunodeficiency virus 1. Nature of the data set: Compound was evaluated for anti-Tat activity in the HeLa-TAT-Luc cell assay against human immunodeficiency virus at 100 uM concentration (Untreated cells). The format is functional.
Data set [10] deals with Human immunodeficiency virus 1. The data set is described as follows: Compound was evaluated for the inhibition of HIV-1 LTR by TNF-alpha-induced NF-kB assay at 50 uM concentration (TNF-alpha-treated cells). The format is functional.
Data set [11] deals with Human immunodeficiency virus 1. Nature of the data set: Compound was evaluated for activity in Recombinant virus assay at concentration that reduces luciferase activity, thus recombinant virus replication. In kind it is functional, organism-based.
Data set [12] in a line: Compound was evaluated for IP toxicity at concentration that reduces cellular growth. To be noted: human.
Data set [13] relates to Human immunodeficiency virus 1. Nature of the data set: Compound was evaluated for the inhibition of HIV-1 LTR by TNF-alpha-induced NF-kB assay at 100 uM concentration (TNF-alpha-treated cells);toxic at this dose. The format is functional, organism-based.
The test system of data set [14] is Human immunodeficiency virus 1. The data set is described as follows: Compound was evaluated for anti-Tat activity in the HeLa-TAT-Luc cell assay against human immunodeficiency virus at 100 uM concentration (Untreated cells);toxic at this dose. The format is functional, organism-based.
Data set [15] concerns Human immunodeficiency virus 1. Nature of the data set: Compound was evaluated for anti-Tat activity in the HeLa-TAT-Luc cell assay against human immunodeficiency virus at 50 uM concentration (Untreated cells);toxic at this dose. In kind it is functional, organism-based.

The term inhibition denotes the relative decrease from the control value, in per cent. As usually defined, the IC50 is the concentration that gives 50% inhibition. One may read the CC50 as the concentration at which the toxic effect on the cells reaches its halfway point. Read a high CC50 as lower toxicity to the cells.

For the compound `O=C1CC(C2(c3cccc4ccccc34)SCCCS2)CO1` (configuration not stated), the inhibition at 25 µM in data set [1] was below 15%; in data set [6], 3%; in [7], 6%. Besides, the inhibition at 50 µM in data set [2] was above 15%; in data set [3], 9.7%; in [10], 24.2%. For the same compound, the results for the Cell death in data set [4] and in data set [5] were 3.5% and 2.9%, respectively. Also, the inhibition at 100 µM in data set [8] came out at 81%; in data set [9] it was 25.6%.

`CCn1c2ccccc2c2cc(C3(C4COC(=O)C4)SCCCS3)ccc21` (configuration not stated): the inhibition at 25 µM in [1] is below 15%; in data set [6], -7.1%; in data set [7], 43.4%. The figures for the inhibition at 50 µM in data set [2], in data set [3] and in data set [10] were below 15%, 41.5% and 30%, respectively. For the same compound, the half-maximal inhibitory concentration (IC50) in data set [11] turned out to be 4.52 µM. Also, the Cell death in data set [4] was 4.2%; in data set [5] it was 4.9%. The compound further displayed a CC50 in [12] above 50 µM. For the same compound, the inhibition at 100 µM in data set [8] came out at 17.6%; in data set [9] it was 40.1%.

For `COc1cc(C2C(=O)OCC2C(=O)c2cccc3ccccc23)cc(OC)c1OC` (configuration not stated), the inhibition entry in data set [13], in data set [14] and in data set [15] was “Toxic” in each case. For the same compound, the inhibition at 25 µM was above 15% in data set [1], 1.5% in data set [6] and 11.6% in data set [7]. For the same compound, the inhibition at 50 µM in [2] is above 15%; in [10], 24.9%. For the same compound, the Cell death in data set [4] turned out to be 7.6%; in data set [5], 6.2%.

As for `COc1cc2c(c(OC)c1OC)[C@]13C(=O)OC[C@H]1[C@@H](C)c1cccc4cccc(c14)[C@@H]23`, the inhibition at 25 µM in data set [1] is below 15%; in [6], 73.6%; in data set [7], -53.1%. Further, the inhibition at 50 µM in [2] was below 15%; in data set [3], -52.9%; in data set [10], 56.1%. For the same compound, the concentration for half-maximal inhibition (IC50) in data set [11] was found to be 2.29 µM. Also, the results for the Cell death in [4] and in data set [5] were 11.3% and 7.8%, respectively. In addition, the CC50 in [12] was above 50 µM. Also, the inhibition at 100 µM in data set [9] is -53.1%.

With `COc1cc([C@@H]2c3cccc4cccc(c34)C3(SCCCS3)[C@@H]3COC(=O)[C@@H]23)cc(OC)c1OC`, the inhibition at 50 µM in data set [3] is -39.7%; in data set [10] it was 38%. The Cell death was 10.5% in [4] and 10.3% in data set [5]. Besides, the inhibition at 25 µM in [6] was 21.8%; in data set [7], -35.9%. Moreover, the inhibition at 100 µM is 23.6% in data set [8] and -40.9% in data set [9].

As for `CCn1c2ccccc2c2cc(C3(C4COC(=O)[C@@H]4C(O)c4cc(OC)c(OC)c(OC)c4)SCCCS3)ccc21` (some centres not stated), the inhibition at 25 µM in data set [1] is below 15%; in data set [6], 38.5%; in [7], 11.9%. For the same compound, the figures for the inhibition at 50 µM in data set [2], in data set [3] and in data set [10] were below 15%, 20.3% and 39.7%, respectively. Moreover, the half-maximal inhibitory concentration (IC50) in data set [11] was found to be 26.8 µM. Besides, the Cell death in [4] was 4%; in data set [5], 4.6%. For the same compound, in [12], the half-maximal cytotoxic concentration (CC50) is above 50 µM. In addition, the inhibition at 100 µM in data set [8] amounted to 43.7%; in data set [9], 30.7%.

On to `COc1cc([C@H]2c3c(ccc4ccccc34)C3(SCCCS3)[C@H]3COC(=O)[C@H]23)cc(OC)c1OC`, for which the inhibition at 50 µM was -9.4% in data set [3] and 10.8% in data set [10]. For the same compound, the inhibition at 25 µM is 17.6% in data set [6] and -9.1% in data set [7]. Further, the inhibition at 100 µM in data set [8] is -11.7%; in data set [9], -19%.

Take `COc1cc(C(O)[C@@H]2C(=O)OCC2C(=O)c2cccc3ccccc23)cc(OC)c1OC` (some centres not stated): the inhibition entry in [13] was “Toxic”. For the same compound, the inhibition at 25 µM was above 15% in data set [1], 37.5% in data set [6] and 1.6% in [7]. Besides, the inhibition at 50 µM in data set [2] is above 15%; in data set [3], 18%; in data set [10], 64.2%. In addition, the Cell death in [4] is 45.7%; in data set [5], 32.1%. For the same compound, the inhibition at 100 µM in [9] worked out at 65%.

On to `C=C1C(=O)c2ccc3ccccc3c2[C@@H](c2cc(OC)c(OC)c(OC)c2)[C@@H]1C(=O)OC`, for which the inhibition entry in data set [13], in data set [14] and in [15] was “Toxic” throughout. Besides, the inhibition at 25 µM is below 15% in data set [1], 96.7% in data set [6] and 56.2% in data set [7]. The inhibition at 50 µM in [2] is above 15%; in [10], 98.9%. For the same compound, the figures for the Cell death in [4] and in data set [5] were 98% and 95%, respectively.

In the case of `COc1cc([C@@H]2c3cccc4cccc(c34)C3(SCCCS3)[C@H](CO)[C@@H]2CO)cc(OC)c1OC`, the values for the inhibition at 50 µM in data set [3] and in data set [10] were 17.6% and 35.2%, respectively. Also, the Cell death in data set [4] was 6.7%; in [5], 7.9%. Moreover, the inhibition at 25 µM in data set [6] came to 43.5%; in data set [7] it was 11.7%. Moreover, the inhibition at 100 µM in [8] came to 25.2%; in data set [9] it was 16.4%.

As for `COc1cc(C(O)[C@H]2C(=O)OCC2C2(c3ccc4ccccc4c3)SCCCS2)cc(OC)c1OC` (some centres not stated), the inhibition at 25 µM in [1] was above 15%; in data set [6] it was 77%; in data set [7], 36.6%. Moreover, the inhibition at 50 µM is above 15% in data set [2], 38.8% in [3] and 57.2% in data set [10]. In addition, the Cell death in data set [4] is recorded as 14.6%; in data set [5], 11.4%. Besides, the inhibition at 100 µM in data set [8] came out at 65.9%; in [9], 30.9%.

Take `COc1cc([C@@H]2c3c(ccc4ccccc34)C(=O)[C@H]3COC(=O)[C@@H]23)cc(OC)c1OC`: the inhibition at 25 µM in [1] was below 15%; in [6] it was 32.9%; in data set [7] it was -0.6%. Also, the inhibition at 50 µM is above 15% in data set [2], 60% in [3] and 25.8% in data set [10]. For the same compound, the Cell death was 4.5% in [4] and 5.5% in data set [5]. Besides, the results for the inhibition at 100 µM in [8] and in data set [9] were 95.5% and 43%, respectively.

`COC(=O)[C@H]1[C@H](c2cc(OC)c(OC)c(OC)c2)c2c(ccc3ccccc23)C(=O)[C@]12CCN=N2`: the inhibition at 25 µM in [1] was above 15%; in [6] it was 32.9%; in data set [7] it was 38.8%. In addition, the inhibition at 50 µM is above 15% in data set [2], 42.2% in [3] and 87.1% in [10]. For the same compound, the Cell death in data set [4] is reported as 43.1; in data set [5] it was 30. Further, the results for the inhibition at 100 µM in [8] and in data set [9] were 92% and 46%, respectively.
